Common to all, as to experiment: Post-emergence efficacy, Method A
What all share (type): in vivo

For assay [1], the system named is Echinochloa crus-galli (ECHCG). To be noted: evaluated after 13 days; for pest or weed control at 500 g/ha: Echinochloa crus-galli, post-emergence, 312 h. The procedure: (§1) Seeds of a variety of test species were sown in standard soil in pots. After cultivation for 14 days (post-emergence) under controlled conditions in a glasshouse (at 24/16° C., day/night; 14 hours light; 65% humidity), the plants were sprayed with an aqueous spray solution derived from the dissolution of the technical active ingredient formula (I) in a small amount of acetone and a special solvent and emulsifier mixture referred to as IF50 (11.12% Emulsogen EL360 TM+44.44% N-methylpyrrolidone+44.44% Dowanol DPM glycol ether), to create a 50 g/I solution which was then diluted to required concentration using 0.25% or 1% Empicol ESC70 (Sodium lauryl ether sulphate)+1% ammonium sulphate as diluent. The test plants were then grown in a glasshouse under controlled conditions (at 24/16° C., day/night; 14 hours light; 65% humidity) and watered twice daily. After 13 days the test was evaluated (100=total damage to plant; 0=no damage to plant).
(§2) Ipomoea hederacea (IPOHE), Euphorbia heterophylla (EPHHL), Chenopodium album (CHEAL), Amaranthus palmeri (AMAPA), Lolium perenne (LOLPE), Digitaria sanguinalis (DIGSA), Eleusine indica (ELEIN), Echinochloa crus-galli (ECHCG), Setaria faberi (SETFA)

The test system of a further assay is Setaria faberi (SETFA). Particulars: evaluated after 13 days; for pest or weed control at 500 g/ha: Setaria faberi, post-emergence, 312 h. The protocol:
as §1, §2

Assay [2] has as its system Ipomoea hederacea (IPOHE). To be noted: evaluated after 13 days; for pest or weed control at 500 g/ha: Ipomoea hederacea, post-emergence, 312 h. The procedure:
as §1, §2

A further assay has as its system Lolium perenne (LOLPE). Particulars: evaluated after 13 days; for pest or weed control at 500 g/ha: Lolium perenne, post-emergence, 312 h. The procedure:
as §1, §2

In assay [3] the test system is Digitaria sanguinalis (DIGSA). To be noted: evaluated after 13 days; for pest or weed control at 500 g/ha: Digitaria sanguinalis, post-emergence, 312 h. The procedure:
as §1, §2

For the next assay, the system named is Eleusine indica (ELEIN). To be noted: evaluated after 13 days; for pest or weed control at 500 g/ha: Eleusine indica, post-emergence, 312 h. The procedure:
as §1, §2

Assay [4] relates to Chenopodium album (CHEAL). To be noted: evaluated after 13 days; for pest or weed control at 500 g/ha: Chenopodium album, post-emergence, 312 h. The procedure:
as §1, §2

Assay [5] has as its system Euphorbia heterophylla (EPHHL). To be noted: evaluated after 13 days; for pest or weed control at 500 g/ha: Euphorbia heterophylla, post-emergence, 312 h. The procedure:
as §1, §2

The test system of assay [6] is Amaranthus palmeri (AMAPA). Particulars: evaluated after 13 days; for pest or weed control at 500 g/ha: Amaranthus palmeri, post-emergence, 312 h. The procedure:
as §1, §2

The mark [7] stands for this setting: Application Rate 500 g/Ha, Method A, read-out: Control of weed species after post-emergence application, ECHCG (100=total damage to plant; 0=no damage to plant).
[8] abbreviates: Application Rate 500 g/Ha, Method A, read-out: Control of weed species after post-emergence application, SETFA (100=total damage to plant; 0=no damage to plant).
Where [9] appears, read: Application Rate 500 g/Ha, Method A, read-out: Control of weed species after post-emergence application, IPOHE (100=total damage to plant; 0=no damage to plant).
Where [10] appears, read: Application Rate 500 g/Ha, Method A, read-out: Control of weed species after post-emergence application, LOLPE (100=total damage to plant; 0=no damage to plant).
Setting [11] is: Application Rate 500 g/Ha, Method A, read-out: Control of weed species after post-emergence application, DIGSA (100=total damage to plant; 0=no damage to plant).
The mark [12] stands for this setting: Application Rate 500 g/Ha, Method A, read-out: Control of weed species after post-emergence application, ELEIN (100=total damage to plant; 0=no damage to plant).
[13] abbreviates: Application Rate 500 g/Ha, Method A, read-out: Control of weed species after post-emergence application, CHEAL (100=total damage to plant; 0=no damage to plant).
Setting [14] is: Application Rate 500 g/Ha, Method A, read-out: Control of weed species after post-emergence application, EPHHL (100=total damage to plant; 0=no damage to plant).
[15] abbreviates: Application Rate 500 g/Ha, Method A, read-out: Control of weed species after post-emergence application, AMAPA (100=total damage to plant; 0=no damage to plant).
Setting [16] is: Application rate 500 g/Ha, 100=total damage to plant, 0=no damage to plant.
The mark [17] stands for this setting: Application rate 500 g/Ha, 100=total damage to plant, 0=no damage to plant, read-out: Control of weed species after post-emergence application, ECHCG.
The mark [18] stands for this setting: Application rate 500 g/Ha, 100=total damage to plant, 0=no damage to plant, read-out: Control of weed species after post-emergence application, SETFA.
Where [19] appears, read: Application rate 500 g/Ha, 100=total damage to plant, 0=no damage to plant, read-out: Control of weed species after post-emergence application, IPOHE.
Setting [20] is: Application rate 500 g/Ha, 100=total damage to plant, 0=no damage to plant, read-out: Control of weed species after post-emergence application, LOLPE.
Setting [21] is: Application rate 500 g/Ha, 100=total damage to plant, 0=no damage to plant, read-out: Control of weed species after post-emergence application, DIGSA.
The mark [22] stands for this setting: Application rate 500 g/Ha, 100=total damage to plant, 0=no damage to plant, read-out: Control of weed species after post-emergence application, ELEIN.
[23] abbreviates: Application rate 500 g/Ha, 100=total damage to plant, 0=no damage to plant, read-out: Control of weed species after post-emergence application, CHEAL.
[24] abbreviates: Application rate 500 g/Ha, 100=total damage to plant, 0=no damage to plant, read-out: Control of weed species after post-emergence application, EPHHL.
Where [25] appears, read: Application rate 500 g/Ha, 100=total damage to plant, 0=no damage to plant, read-out: Control of weed species after post-emergence application, AMAPA.

Each structure is given as a SMILES string. Like-named read-outs stand apart in the source and are kept apart here.

In the case of `O=S(=O)([O-])OCCC[n+]1ccc(-c2ncccn2)cn1` [Compound A216], the pest or weed control at 500 g/ha is 70% in assay [1] (setting [7]); 90% in the assay with Setaria faberi (SETFA) (setting [8]); 60% in [2] (setting [9]); 70% with Lolium perenne (LOLPE) (setting [10]); 100% in assay [3] (setting [11]); 100% with Eleusine indica (ELEIN) (setting [12]). Moreover, the pest or weed control at 500 g/ha in assay [4] (setting [13]) was 90%; in assay [5] (setting [14]), 100%; in assay [6] (setting [15]), 100%.

For the compound `O=S(=O)([O-])CCCC[n+]1ccc(-c2ncccn2)cn1` [Compound A215], the pest or weed control at 500 g/ha in assay [1] (setting [7]) is 30%; in the assay on Setaria faberi (SETFA) (setting [8]) it was 20%; in assay [2] (setting [9]), 60%; with Lolium perenne (LOLPE) (setting [10]) it was 20%; in assay [3] (setting [11]) it was 60%; with Eleusine indica (ELEIN) (setting [12]) it was 30%. Further, the pest or weed control at 500 g/ha was determined as 60% in [4] (setting [13]), 90% in assay [5] (setting [14]) and 100% in assay [6] (setting [15]).

Regarding `COC(=O)CC[n+]1ccc(-c2ccncc2)cn1` [Compound A203], the pest or weed control at 500 g/ha in assay [1] (setting [7]) was 50%; with Setaria faberi (SETFA) (setting [8]), 60%; in assay [2] (setting [9]), 20%; with Lolium perenne (LOLPE) (setting [10]) it was 0%; in assay [3] (setting [11]), 70%; with Eleusine indica (ELEIN) (setting [12]), 60%. In addition, the pest or weed control at 500 g/ha was determined as 90% in assay [4] (setting [13]), 50% in assay [5] (setting [14]) and 100% in assay [6] (setting [15]).

With `COc1cc(C)nc(-c2cc[n+](CCS(=O)(=O)O)nc2)n1` [Compound A94], in assay [1] (setting [16]), the “Control of weed species after post-emergence application, ECHCG” value is 30. The “Control of weed species after post-emergence application, SETFA” value in the assay with Setaria faberi (SETFA) (setting [16]) is given as 40. For the same compound, in assay [2] (setting [16]), the “Control of weed species after post-emergence application, IPOHE” value is 30. Also, the “Control of weed species after post-emergence application, LOLPE” value in the assay on Lolium perenne (LOLPE) (setting [16]) was 20. The “Control of weed species after post-emergence application, DIGSA” value in assay [3] (setting [16]) is given as 30. The “Control of weed species after post-emergence application, ELEIN” value with Eleusine indica (ELEIN) (setting [16]) was determined as 20. The “Control of weed species after post-emergence application, CHEAL” value in [4] (setting [16]) is recorded as 90. The “Control of weed species after post-emergence application, EPHHL” value in assay [5] (setting [16]) was 40. The “Control of weed species after post-emergence application, AMAPA” value in assay [6] (setting [16]) worked out at 70.

With `CC(C[n+]1ccc(-c2ncccn2)cn1)NS(=O)(=O)[O-]` (stereo not drawn) [Compound A221], the pest or weed control at 500 g/ha turned out to be 60% in assay [1] (setting [7]); 80% in the assay with Setaria faberi (SETFA) (setting [8]); 60% in [2] (setting [9]); 60% in the assay with Lolium perenne (LOLPE) (setting [10]); 100% in assay [3] (setting [11]); 100% with Eleusine indica (ELEIN) (setting [12]). Moreover, the pest or weed control at 500 g/ha turned out to be 90% in assay [4] (setting [13]), 90% in assay [5] (setting [14]) and 100% in assay [6] (setting [15]).

Turning to `O=S(=O)([O-])CC[n+]1ccc(-c2ncc(C(F)(F)F)cn2)cn1` [Compound A24], the pest or weed control at 500 g/ha in assay [1] (setting [17]) amounted to 60%; in the assay with Setaria faberi (SETFA) (setting [18]), 70%; in assay [2] (setting [19]), 70%; in the assay on Lolium perenne (LOLPE) (setting [20]) it was 60%; in [3] (setting [21]), 40%; with Eleusine indica (ELEIN) (setting [22]), 40%. In addition, the pest or weed control at 500 g/ha in [4] (setting [23]) was 70%; in [5] (setting [24]) it was 80%; in [6] (setting [25]) it was 90%.

As to `COC(=O)CC[n+]1ccc(-c2ncccn2)cn1` [Compound A54, methyl 3-(4-pyrimidin-2-ylpyridazin-1-ium-1-yl)propanoate 2,2,2-trifluoroacetate], the pest or weed control at 500 g/ha in [1] (setting [17]) worked out at 90%; with Setaria faberi (SETFA) (setting [18]), 100%; in [2] (setting [19]), 10%; in the assay on Lolium perenne (LOLPE) (setting [20]) it was 70%; in assay [3] (setting [21]), 100%; in the assay on Eleusine indica (ELEIN) (setting [22]) it was 100%. Also, the pest or weed control at 500 g/ha in assay [4] (setting [23]) amounted to 90%; in [5] (setting [24]), 70%; in assay [6] (setting [25]), 90%.

Take `CCOC(=O)CC[n+]1ccc(-c2ccccn2)cn1` [Compound A91]: the pest or weed control at 500 g/ha in [1] (setting [17]) was determined as 60%; with Setaria faberi (SETFA) (setting [18]), 60%; in [2] (setting [19]), 20%; in the assay on Lolium perenne (LOLPE) (setting [20]), 20%; in assay [3] (setting [21]) it was 50%; in the assay on Eleusine indica (ELEIN) (setting [22]) it was 60%. Further, the pest or weed control at 500 g/ha in [4] (setting [23]) amounted to 20%; in assay [5] (setting [24]) it was 40%; in assay [6] (setting [25]), 40%.

Turning to `Nc1cc(-c2cc[n+](CCC(=O)O)nc2)nc(N)n1` [Compound A188], the pest or weed control at 500 g/ha in assay [1] (setting [7]) was determined as 50%; in the assay on Setaria faberi (SETFA) (setting [8]), 30%; in [2] (setting [9]), 20%; in the assay on Lolium perenne (LOLPE) (setting [10]) it was 20%; in [3] (setting [11]), 40%; in the assay with Eleusine indica (ELEIN) (setting [12]), 20%. The pest or weed control at 500 g/ha in [4] (setting [13]) came to 50%; in assay [5] (setting [14]) it was 30%; in assay [6] (setting [15]), 90%.

For `O=S(=O)([O-])CC[n+]1ccc(-c2ccnc(C(F)(F)F)c2)cn1` [Compound A165], the pest or weed control at 500 g/ha in [1] (setting [7]) was 70%; in the assay with Setaria faberi (SETFA) (setting [8]), 60%; in assay [2] (setting [9]) it was 40%; with Lolium perenne (LOLPE) (setting [10]) it was 60%; in assay [3] (setting [11]), 60%; in the assay on Eleusine indica (ELEIN) (setting [12]), 70%. Also, the results for the pest or weed control at 500 g/ha in assay [4] (setting [13]), in assay [5] (setting [14]) and in assay [6] (setting [15]) were 50%, 50% and 100%, respectively.

The values above are taken from patent US20220125051A1, “PRE-HARVEST DESICCATION METHOD” (SYNGENTA CROP PROTECTION AG, priority 2019, published 2022).
